Experimental data reported in US9139557B2, “Carboxamide compounds and their use as calpain inhibitors” (Abbott GmbH & Co. KG, priority 2006, dated 2015).

Columns and labels:
Format in all cases: biochemical
[1] = molecular target: T1, cathepsin L (Homo sapiens, UniProt P07711); assay: Cathepsin L enzyme inhibition in vitro (kinetic fluorescence assay); settings: Ki(cathepsin L)/Ki(calpain) ratio
T1 construct: cathepsin L—isolated from human liver; purchased Calbiochem 219402; host or cells: human liver (tissue isolate)
Summary of the method: (§1)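 Kinetic fluorescence (ex 390/em 460 nm), room temperature: calpain-I (human erythrocyte, 20 nM) with 100 µM Suc-Leu-Tyr-AMC, imidazole/CaCl2 pH 7.3; cathepsin B (liver, 0.25 nM), 100 µM Z-Phe-Arg-AMC; L (liver, 1 nM), 2 µM Z-Phe-Arg-AMC; S (recombinant, 0.5 nM), 20 µM Z-Val-Val-Arg-AMC; cathepsins in MES/EDTA/cysteine pH 6.0. Apparent Ki via Cheng-Prusoff, 2–4 curves averaged.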

[2] = molecular target: T2, cathepsin S (Homo sapiens, UniProt P25774); assay: Cathepsin S enzyme inhibition in vitro (kinetic fluorescence assay); settings: Ki(cathepsin S)/Ki(calpain) ratio
T2 construct: purchased Calbiochem 219343; host or cells: E. coli
Summary of the method: as §1

[3] = molecular target: T3, cathepsin K (Homo sapiens, UniProt P43235); assay: Cathepsin K enzyme inhibition in vitro (kinetic fluorescence assay); settings: Ki(cathepsin K)/Ki(calpain) ratio
T3 construct: purchased Calbiochem 342001; host or cells: E. coli
T3 sequence (P43235 115-329): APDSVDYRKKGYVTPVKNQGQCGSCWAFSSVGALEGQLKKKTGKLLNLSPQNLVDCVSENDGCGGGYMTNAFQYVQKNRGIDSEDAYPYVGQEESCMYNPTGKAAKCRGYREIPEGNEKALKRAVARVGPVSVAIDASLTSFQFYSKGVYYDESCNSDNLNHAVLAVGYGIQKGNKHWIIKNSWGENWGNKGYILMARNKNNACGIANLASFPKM

[4] = molecular target: T4, cathepsin B (Homo sapiens, UniProt P07858); assay: Cathepsin B enzyme inhibition in vitro (kinetic fluorescence assay); settings: Ki(cathepsin B)/Ki(calpain) ratio
T4 construct: cathepsin B—isolated from human liver; purchased Calbiochem 219362; host or cells: human liver (tissue isolate)
Summary of the method: as §1

T1 sequence (P07711 114-333): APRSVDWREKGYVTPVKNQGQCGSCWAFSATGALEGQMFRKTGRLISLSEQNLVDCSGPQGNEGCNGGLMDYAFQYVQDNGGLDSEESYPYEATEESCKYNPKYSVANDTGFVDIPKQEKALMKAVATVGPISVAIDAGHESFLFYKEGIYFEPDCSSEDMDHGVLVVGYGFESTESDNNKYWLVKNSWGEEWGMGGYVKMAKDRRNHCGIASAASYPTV
T2 sequence (P25774 115-331): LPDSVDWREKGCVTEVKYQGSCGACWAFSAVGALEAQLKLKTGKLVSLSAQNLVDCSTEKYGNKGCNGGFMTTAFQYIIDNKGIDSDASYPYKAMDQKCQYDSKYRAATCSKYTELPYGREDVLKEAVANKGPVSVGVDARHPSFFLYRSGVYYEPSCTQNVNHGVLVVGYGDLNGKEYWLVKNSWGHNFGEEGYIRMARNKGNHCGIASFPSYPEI

Compound	Sel cat. L [1]	Sel cat. S [2]	Sel cat. K [3]	Sel cat. B [4]
NC(=O)C(=O)C(Cc1ccccc1)NC(=O)c1cccnc1-n1cc2c(n1)-c1ccccc1SC2 (stereo not drawn) [Example 173, N-[3-Amino-2,3-dioxo-1-(phenylmethyl)propyl]-2-thiochromeno[4,3-c]pyrazol-2(4H)-ylpyridine-3-carboxamide]	++ (++ means a Ki(cathepsin L)/Ki(calpain) ratio of ≧50)	++ (++ means a Ki(cathepsin S)/Ki(calpain) ratio of ≧100)	+ (+ means 10≦Ki(cathepsin K)/Ki(calpain)<30)	+ (+ means 10≦Ki(cathepsin B)/Ki(calpain)<30)
COc1ccc(CC(NC(=O)c2cccnc2-n2ccc(-c3ccc(F)cc3)n2)C(=O)C(N)=O)cc1 (stereo not drawn) [Example 81, N-[3-Amino-1-(4-methoxybenzyl)-2,3-dioxopropyl]-2-[3-(4-fluorophenyl)-1H-pyrazol-1-yl]nicotinamide]	++ (++ means a Ki(cathepsin L)/Ki(calpain) ratio of ≧50)	++ (++ means a Ki(cathepsin S)/Ki(calpain) ratio of ≧100)	+ (+ means 10≦Ki(cathepsin K)/Ki(calpain)<30)	+ (+ means 10≦Ki(cathepsin B)/Ki(calpain)<30)
N-[3-Amino-2,3-dioxo-1-(phenylmethyl)propyl]-2-[3-(3,5-dichlorophenyl)-1H-pyrazol-1-yl]pyridine-3-carboxamide [Example 89]	++ (++ means a Ki(cathepsin L)/Ki(calpain) ratio of ≧50)	++ (++ means a Ki(cathepsin S)/Ki(calpain) ratio of ≧100)	+ (+ means 10≦Ki(cathepsin K)/Ki(calpain)<30)	+ (+ means 10≦Ki(cathepsin B)/Ki(calpain)<30)
NC(=O)C(=O)C(Cc1ccccc1)NC(=O)c1cccnc1-n1ccc(-c2cccc3cccnc23)n1 (stereo not drawn) [Example 160, N-[3-amino-2,3-dioxo-1-(phenylmethyl)propyl]-2-(3-quinolin-8-yl-1H-pyrazol-1-yl)pyridine-3-carboxamide]	++ (++ means a Ki(cathepsin L)/Ki(calpain) ratio of ≧50)	++ (++ means a Ki(cathepsin S)/Ki(calpain) ratio of ≧100)	++ (++ means a Ki(cathepsin K)/Ki(calpain) ratio of ≧30)	++ (++ means a Ki(cathepsin B)/Ki(calpain) ratio of ≧30)
NC(=O)C(=O)C(Cc1ccccc1)NC(=O)c1cccnc1-n1ccc(-c2cccc3c2OCC3)n1 (stereo not drawn) [Example 164, N-[3-Amino-2,3-dioxo-1-(phenylmethyl)propyl]-2-[3-(2,3-dihydro-1-benzofuran-7-yl)-1H-pyrazol-1-yl]pyridine-3-carboxamide]	++ (++ means a Ki(cathepsin L)/Ki(calpain) ratio of ≧50)	++ (++ means a Ki(cathepsin S)/Ki(calpain) ratio of ≧100)	++ (++ means a Ki(cathepsin K)/Ki(calpain) ratio of ≧30)	+ (+ means 10≦Ki(cathepsin B)/Ki(calpain)<30)
NC(=O)C(=O)C(Cc1ccccc1)NC(=O)c1cccnc1-n1ccc(-c2ccc(C(F)(F)F)cc2)n1 (stereo not drawn) [Example 60, N-(3-Amino-1-benzyl-2,3-dioxopropyl)-2-{3-[4-(trifluoromethyl)phenyl]-1H-pyrazol-1-yl}nicotinamide]	++ (++ means a Ki(cathepsin L)/Ki(calpain) ratio of ≧50)	+ (+ means 50≦Ki(cathepsin S)/Ki(calpain)<100)	+ (+ means 10≦Ki(cathepsin K)/Ki(calpain)<30)	+ (+ means 10≦Ki(cathepsin B)/Ki(calpain)<30)
NC(=O)C(=O)C(Cc1ccccc1)NC(=O)c1cccnc1-n1ccc(-c2sccc2Cl)n1 (stereo not drawn) [Example 109, N-[3-Amino-2,3-dioxo-1-(phenylmethyl)propyl]-2-[3-(3-chloro-2-thienyl)-1H-pyrazol-1-yl]pyridine-3-carboxamide]	++ (++ means a Ki(cathepsin L)/Ki(calpain) ratio of ≧50)	++ (++ means a Ki(cathepsin S)/Ki(calpain) ratio of ≧100)	++ (++ means a Ki(cathepsin K)/Ki(calpain) ratio of ≧30)	++ (++ means a Ki(cathepsin B)/Ki(calpain) ratio of ≧30)
NC(=O)C(=O)C(Cc1ccccc1)NC(=O)c1cccnc1-n1ccc(-c2cc(C(F)(F)F)ccc2CN2CCOCC2)n1 (stereo not drawn) [Example 163, N-[3-Amino-2,3-dioxo-1-(phenylmethyl)propyl]-2-{3-[2-(morpholin-4-ylmethyl)-5-(trifluoromethyl)phenyl]-1H-pyrazol-1-yl}pyridine-3-carboxamide]	+ (+ means 30≦Ki(cathepsin L)/Ki(calpain)<50)	++ (++ means a Ki(cathepsin S)/Ki(calpain) ratio of ≧100)	+ (+ means 10≦Ki(cathepsin K)/Ki(calpain)<30)	+ (+ means 10≦Ki(cathepsin B)/Ki(calpain)<30)
COc1ccc2c(c1)-c1nn(-c3ncccc3C(=O)NC(Cc3ccccc3)C(=O)C(N)=O)cc1CO2 (stereo not drawn) [Example 183, N-[3-Amino-2,3-dioxo-1-(phenylmethyl)propyl]-2-[8-(methyloxy)chromeno[4,3-c]pyrazol-2(4H)-yl]pyridine-3-carboxamide]	++ (++ means a Ki(cathepsin L)/Ki(calpain) ratio of ≧50)	++ (++ means a Ki(cathepsin S)/Ki(calpain) ratio of ≧100)	+ (+ means 10≦Ki(cathepsin K)/Ki(calpain)<30)	+ (+ means 10≦Ki(cathepsin B)/Ki(calpain)<30)
NC(=O)C(=O)C(Cc1ccccc1)NC(=O)c1cccnc1-n1ccc(-c2cccc(OCc3ccccc3)c2)n1 (stereo not drawn) [Example 96, N-[3-Amino-2,3-dioxo-1-(phenylmethyl)propyl]-2-(3-{3-[(phenylmethyl)oxy]phenyl}-1H-pyrazol-1-yl)pyridine-3-carboxamide]	++ (++ means a Ki(cathepsin L)/Ki(calpain) ratio of ≧50)	++ (++ means a Ki(cathepsin S)/Ki(calpain) ratio of ≧100)	++ (++ means a Ki(cathepsin K)/Ki(calpain) ratio of ≧30)	++ (++ means a Ki(cathepsin B)/Ki(calpain) ratio of ≧30)
NC(=O)C(=O)C(Cc1ccccc1)NC(=O)c1cccnc1-n1ccc(-c2cccc3c2OC(F)(F)O3)n1 (stereo not drawn) [Example 119, N-[3-Amino-2,3-dioxo-1-(phenylmethyl)propyl]-2-[3-(2,2-difluoro-1,3-benzodioxol-4-yl)-1H-pyrazol-1-yl]pyridine-3-carboxamide]	++ (++ means a Ki(cathepsin L)/Ki(calpain) ratio of ≧50)	++ (++ means a Ki(cathepsin S)/Ki(calpain) ratio of ≧100)	++ (++ means a Ki(cathepsin K)/Ki(calpain) ratio of ≧30)	++ (++ means a Ki(cathepsin B)/Ki(calpain) ratio of ≧30)
NC(=O)C(=O)C(Cc1ccccc1)NC(=O)c1cccnc1-n1ccc(-c2ccc3c(c2)OC(F)(F)O3)n1 (stereo not drawn) [Example 118, N-[3-Amino-2,3-dioxo-1-(phenylmethyl)propyl]-2-[3-(2,2-difluoro-1,3-benzodioxol-5-yl)-1H-pyrazol-1-yl]pyridine-3-carboxamide]	++ (++ means a Ki(cathepsin L)/Ki(calpain) ratio of ≧50)	++ (++ means a Ki(cathepsin S)/Ki(calpain) ratio of ≧100)	+ (+ means 10≦Ki(cathepsin K)/Ki(calpain)<30)	++ (++ means a Ki(cathepsin B)/Ki(calpain) ratio of ≧30)
NC(=O)C(=O)C(Cc1ccccc1)NC(=O)c1cccnc1-n1ccc(-c2ccc(N3CCOCC3)cc2Cl)n1 (stereo not drawn) [Example 99, N-[3-Amino-2,3-dioxo-1-(phenylmethyl)propyl]-2-[3-(2-chloro-4-morpholin-4-ylphenyl)-1H-pyrazol-1-yl]pyridine-3-carboxamide]	++ (++ means a Ki(cathepsin L)/Ki(calpain) ratio of ≧50)	++ (++ means a Ki(cathepsin S)/Ki(calpain) ratio of ≧100)	++ (++ means a Ki(cathepsin K)/Ki(calpain) ratio of ≧30)	++ (++ means a Ki(cathepsin B)/Ki(calpain) ratio of ≧30)
NC(=O)C(=O)C(Cc1ccccc1)NC(=O)c1cccnc1-n1ccc(-c2cccc(OC(F)(F)F)c2)n1 (stereo not drawn) [Example 168, N-[3-Amino-2,3-dioxo-1-(phenylmethyl)propyl]-2-(3-{3-[(trifluoromethyl)oxy]phenyl}-1H-pyrazol-1-yl)pyridine-3-carboxamide]	++ (++ means a Ki(cathepsin L)/Ki(calpain) ratio of ≧50)	++ (++ means a Ki(cathepsin S)/Ki(calpain) ratio of ≧100)	+ (+ means 10≦Ki(cathepsin K)/Ki(calpain)<30)	+ (+ means 10≦Ki(cathepsin B)/Ki(calpain)<30)
COc1cc(F)ccc1-c1ccn(-c2ncccc2C(=O)NC(Cc2ccccc2)C(=O)C(N)=O)n1 (stereo not drawn) [Example 125, N-[3-Amino-2,3-dioxo-1-(phenylmethyl)propyl]-2-{3-[4-fluoro-2-(methyloxy)phenyl]-1H-pyrazol-1-yl}pyridine-3-carboxamide]	++ (++ means a Ki(cathepsin L)/Ki(calpain) ratio of ≧50)	++ (++ means a Ki(cathepsin S)/Ki(calpain) ratio of ≧100)	++ (++ means a Ki(cathepsin K)/Ki(calpain) ratio of ≧30)	++ (++ means a Ki(cathepsin B)/Ki(calpain) ratio of ≧30)
